The record followed here is ChEMBL document CHEMBL1201862, “PubChem BioAssay data set” (2004).

Holding throughout (assay): growth of human tumour cells (NCI), 48 h
In test [1] the test system is U-251.
In test [2] the test system is SK-MEL-28.
Test [3] deals with NCI-H23.
Test [4] concerns SN12C.
Test [5] concerns SW-620.
In test [6] the test system is RXF 393.
Test [7] has as its system SF-295.
In test [8] the test system is EKVX.
Test [9] relates to UO-31.
The subject of test [10] is M19-MEL.
The test system of test [11] is MOLT-4.
In test [12] the test system is CCRF-CEM.
The subject of test [13] is SNB-19.
For test [14], the system named is A498.
Test [15] concerns KM12.
The subject of test [16] is SR.
Test [17] concerns SF-539.
In test [18] the test system is MDA-N.
Test [19] deals with DU-145.
The subject of test [20] is MDA-MB-435.

Molecules are shown by their SMILES.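 Dose response: 5 concentrations. Exposure: 48 h. Format: 96-well plates. Endpoint: linear interpolation; highest concentration if not reached. GI50: concentration for 50% inhibition of growth.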 The source made the active and inactive calls. Rule as the data show it: active = GI50 up to about 1.1 µM and inactive = higher. Some results are limits rather than exact numbers.

Turning to `O=C(/C=C/c1ccccc1F)c1ccc([N+](=O)[O-])cc1`, the GI50 is 15.1 µM (inactive) in test [1]; 18.4 µM (inactive) in test [2]; 31.2 µM (inactive) in [3]; 37.8 µM (inactive) in [4]; 26.6 µM (inactive) in [5]; 19.5 µM (inactive) in [6]. Further, the GI50 in test [7] was 27.9 µM (inactive); in [8] it was 38.5 µM (inactive); in test [9] it was 11.6 µM (inactive); in [10] it was 22.2 µM (inactive); in test [11], 2.07 µM (inactive).

Consider `c1ccc2c(c1)SC(=C1Sc3ccccc3S1)S2`, for which the GI50 in [1], in test [2], in [3], in [12], in test [4] and in test [5] was > 100 µM (inactive) each time. Also, the GI50 in test [6], in test [7], in test [8], in test [9], in test [10] and in test [13] was > 100 µM (inactive) in each case. For the same compound, in test [11], the GI50 was > 100 µM (inactive).

As for `O=C(NC(Nc1ccc(F)cc1)(C(F)(F)F)C(F)(F)F)C(C(F)(F)F)C(F)(F)F`, the GI50 is 57.4 µM (inactive) in test [1]; 17.5 µM (inactive) in test [2]; 18.1 µM (inactive) in test [3]; 62.2 µM (inactive) in [14]; 3.13 µM (inactive) in test [12]; 50.2 µM (inactive) in [4]. Also, the GI50 in test [15] was 0.908 µM (active); in test [16] it was 18.6 µM (inactive); in test [5] it was 1.65 µM (inactive); in [6] it was 33.3 µM (inactive); in test [7], 3.01 µM (inactive); in test [8] it was 24.7 µM (inactive). Besides, the GI50 is 21.4 µM (inactive) in [17]; 2.39 µM (inactive) in [9]; 48.2 µM (inactive) in [13]; 9.84 µM (inactive) in [18]; 9.93 µM (inactive) in test [19]; 4.86 µM (inactive) in test [11]. The GI50 in test [20] is 1.13 µM (inactive).

Regarding `CC(SC(=S)N1CCOCC1)C(=O)Nc1nnc(-c2ccccc2)o1` (stereo not given), the GI50 in test [1] is > 100 µM (inactive); in test [2], > 100 µM (inactive); in test [3], > 100 µM (inactive); in test [14] it was > 100 µM (inactive); in test [12], 4.23 µM (inactive); in test [4], 93.3 µM (inactive). Also, the GI50 in test [15] was > 100 µM (inactive); in test [16] it was 21.8 µM (inactive); in test [5], 51.6 µM (inactive); in [6], > 100 µM (inactive); in test [7], 88.5 µM (inactive); in test [8], > 100 µM (inactive). In addition, the GI50 in test [17] was > 100 µM (inactive); in test [9], 53.2 µM (inactive); in test [13], > 100 µM (inactive); in test [18] it was > 100 µM (inactive); in [19], > 100 µM (inactive); in [11], 36.8 µM (inactive). Besides, the GI50 in test [20] is > 100 µM (inactive).

As to `CC(=O)NC1=C(Sc2ccc(Cl)cc2)C(=O)c2ccccc2C1=O`, the GI50 in test [1] was 3.84 µM (inactive); in test [2] it was 2.7 µM (inactive); in test [3], 5.28 µM (inactive); in test [14], 3.5 µM (inactive); in [12] it was 1.06 µM (active); in [4] it was 4.67 µM (inactive). The GI50 was 4.75 µM (inactive) in [15]; 2.21 µM (inactive) in test [16]; 1.95 µM (inactive) in [5]; 1.86 µM (inactive) in test [6]; 8.81 µM (inactive) in [7]; 5.71 µM (inactive) in test [8]. The GI50 in [17] is 2.15 µM (inactive); in [9] it was 1.95 µM (inactive); in test [13], 13.2 µM (inactive); in test [18] it was 1.76 µM (inactive); in test [19], 14.6 µM (inactive); in [11], 0.374 µM (active). In addition, in test [20], the GI50 is 2.08 µM (inactive).

On to `COc1ccc(N2C(=O)C3c4[nH]c5ccc([N+](=O)[O-])cc5c4C4CCC(C(C)(C)C)CC4C3C2=O)cc1` (stereo not given), for which the GI50 is 19.3 µM (inactive) in [1]; 61.7 µM (inactive) in test [2]; 6.53 µM (inactive) in test [3]; 2.26 µM (inactive) in test [14]; 4.51 µM (inactive) in [12]; 15.2 µM (inactive) in test [4]. Moreover, the GI50 was 6.5 µM (inactive) in test [15]; 3.72 µM (inactive) in test [16]; 37.1 µM (inactive) in test [5]; 3.33 µM (inactive) in test [6]; 13.7 µM (inactive) in test [7]; 15.5 µM (inactive) in [8]. Further, the GI50 in [17] is 15.2 µM (inactive); in test [9], 16.3 µM (inactive); in [13], 35.7 µM (inactive); in test [18] it was 20.3 µM (inactive); in [19] it was 32.8 µM (inactive); in test [11], 14.3 µM (inactive). Moreover, the GI50 in test [20] was 18.7 µM (inactive).

`O=C(O)c1c(-c2c3ccc(=O)cc-3oc3cc(O)ccc23)cc2ccccc2c1-c1ccccc1`: the GI50 was > 100 µM (inactive) in test [1]; > 100 µM (inactive) in test [2]; > 100 µM (inactive) in [3]; > 100 µM (inactive) in test [14]; > 20.6 µM (inactive) in test [12]; > 100 µM (inactive) in test [4]. In addition, the GI50 in test [15], in [16], in test [5], in test [6], in [7] and in test [8] was > 100 µM (inactive) each time. The GI50 was > 100 µM (inactive) in [17]; > 100 µM (inactive) in [9]; > 100 µM (inactive) in [13]; > 100 µM (inactive) in test [18]; > 100 µM (inactive) in test [19]; 4.85 µM (inactive) in test [11]. Moreover, the GI50 in test [20] was > 100 µM (inactive).

In the case of `CC(=O)Nc1ncc(Sc2ccccc2C(=O)O)s1`, the GI50 in [1], in [2], in test [3], in [14], in [12] and in test [4] was > 100 µM (inactive) each time. The GI50 in test [15], in test [16], in [5], in test [6], in test [7] and in test [8] was > 100 µM (inactive) each time. Also, the GI50 in [17], in [9], in test [13], in test [18], in test [19] and in [11] was > 100 µM (inactive) in each case. Besides, the GI50 in test [20] is > 100 µM (inactive).

In the case of `O=C1C=CC(=O)c2c(O)c(N3CCN(c4ccccn4)CC3)cc(O)c21`, the GI50 in test [1] was 5.64 µM (inactive); in [2], 13.7 µM (inactive); in test [3] it was 3.4 µM (inactive); in test [14], 34.4 µM (inactive); in test [12], 3.07 µM (inactive); in test [4] it was 7.6 µM (inactive). In addition, the GI50 was 11 µM (inactive) in test [15]; 3.19 µM (inactive) in test [16]; 3.58 µM (inactive) in test [5]; 7.26 µM (inactive) in [6]; 17.5 µM (inactive) in test [7]; 23.9 µM (inactive) in test [8]. Further, the GI50 in [17] is 4.85 µM (inactive); in test [9] it was 8.28 µM (inactive); in test [13] it was 19.2 µM (inactive); in [18] it was 2.41 µM (inactive); in test [19], 12.6 µM (inactive); in [11] it was 4.22 µM (inactive). The GI50 in [20] was 0.851 µM (active).

On to `CCOC(=O)/C=C(\C(=O)OCC)n1ccc(=O)[nH]c1=O`, for which the GI50 in test [1] was 17.4 µM (inactive); in test [2], 16.9 µM (inactive); in [3], 16.7 µM (inactive); in test [14], 19.1 µM (inactive); in test [12] it was 2.16 µM (inactive); in test [4], 11.8 µM (inactive). For the same compound, the GI50 is 17.9 µM (inactive) in test [15]; 10.4 µM (inactive) in test [16]; 2.64 µM (inactive) in test [5]; 10.6 µM (inactive) in test [6]; > 60.8 µM (inactive) in [7]; 16 µM (inactive) in [8]. Moreover, the GI50 in [17] is 24.2 µM (inactive); in test [9] it was 16.9 µM (inactive); in test [13], 52.2 µM (inactive); in test [18], 22.6 µM (inactive); in test [19], 31.4 µM (inactive); in test [11] it was 3.44 µM (inactive). The GI50 in test [20] is 17.4 µM (inactive).

Regarding `C=CCC1(OC(C)=O)C2OC(=O)C1(O)OCC2O` (stereo not given), the GI50 in test [1], in test [2], in test [3], in test [14], in test [12] and in test [4] was > 100 µM (inactive) in each case. The GI50 in test [15], in test [16], in [5], in test [6], in test [7] and in [8] was > 100 µM (inactive) in each case. Further, the GI50 in [17], in [9], in [13], in test [18], in test [19] and in test [11] was > 100 µM (inactive) throughout. The GI50 in [20] is > 100 µM (inactive).
